Measured values: US20150224170A1 (priority 2010, published 2015)

Tests used:
[1] = system: Sindbis virus (SINV, TE strain); assay type: cell-based
NFAT3 = assay type: cell-based, rat; conditions: 10 uM
[2] = system: SINV-infected differentiated CSM14.1 cells; assay type: cell-based, rat; conditions: 10 uM

CCCOc1ccccc1-c1nc2nn[nH]c2c(=O)[nH]1 [zaprinast]
viral titers / viral replication versus untreated SINV infection (in words) [1]: tended to slightly increase viral titers at most time points
cytoplasmic NFAT3 (Western blot) (NFAT3): remained constant at all timepoints
effect on NFAT3 activation (NFAT3): no effect
nuclear NFAT3 (Western blot) (NFAT3): remained constant at all timepoints
viability / survival of infected cells [2]: did not detectably affect cell survival
